# Source: US20250099407A1, “2-AMINO BENZOPHENONE DERIVATIVES FOR TARGETED FERROPTOSIS INDUCTION IN CANCER THERAPY” (INDIAN INSTITUTE OF TECHNOLOGY KANPUR, priority 2023, published 2025)
# Read-outs that look alike come from different tables or passages of the source.
# Legend:
# Huh-7 cells [1] = test: Cell viability, luminescence-based CellTiter-Glo assay, Huh-7 cells
# Method in brief: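 ATP-based CellTiter-Glo luminescence in Huh-7 cells in DMEM, with DMSO (>0.1%) as control. Single-point screens used 10 μM compound with or without Fer-1 (10 μM); dose responses used 8-point 3-fold dilutions from 100/10 μM to 45/4.5 nM. More than two biological replicates with three technical replicates each.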
# Huh-7 cells [2] = test: Intracellular ROS, H2-DCFDA oxidation assay in Huh-7 cells; format: cell-based; conditions: Huh-7, 37° C., 30 min; IITK3001 and IITK3002 20 μM, H2O2 100 μM
# Method: We used fluorescence imaging-based oxidation of H2-DCFDA by ROS for assessing intracellular oxidative stress. Huh-7 cells were treated at 37° C. for 30 min with IITK3001 and IITK3002 (20 μM), H2O2 (100 μM), ^tertBuOOH (20 μM), NAC (0.5 mM) and 0.1% DMSO as control. Each experiment was conducted in more than two biological replicates with three technical replicates.
# b. Effect of Thiols and Ferroptosis Modulators on the Hit Molecules' Antiproliferative Potency: Ferroptosis is directly controlled by the intracellular thiol concentrations in the form of cysteine and glutathione. Several oxidative mechanisms are well-wired in ferroptotic cell death and we set out to investigate the precise molecular mechanism of our lead molecules. Both cysteine and glutathione (GSH) are the enriched thiol-containing small molecule antioxidant system that are essential regulators of redox modulation in cells including ferroptosis. Further, the enzyme glutathione peroxidase 4 (GPX4) is well characterized to specifically quench the lipid peroxide equivalents in cells through the conversion of […] in cells thereby restoring the reduced environment in cells. Therefore, first, we assessed the ability of N-acetylcysteine (NAC) and GSH to suppress our lead molecules antiproliferative activity (FIG. 4a, b). We found a drastic reduction in the molecules' potency with IITK3001 (>1000-fold reduction) and IITK3002 (>500-fold reduction) (FIG. 14a, b). Supporting that, the addition of DL-Buthionine sulfoximine (BSO), an inhibitor of y-glutamylcysteine synthetase (glutathione biosynthesis) combination with our lead molecules potentiated the overall inhibitory capacity (FIG. 14a, b). […] Finally, we assessed the effect of Ferrostain-1 (Fer-1) and Liproxstatin-1 (Lip-1), antioxidants that function by trapping reactive radicals in cells, particularly lipid-peroxide radicals, and preventing the accumulation of lipid peroxides in cells. […] The accumulation of lipid peroxides and overall ROS was also detected using a fluorescence-based H2DCF-DA assay as depicted in FIG. 15. […]
# [3] = Homo sapiens, Huh-7, Huh-7 cells, antiproliferative activity, read-out: EC50 in Huh-7 cells
# [4] = Homo sapiens, Huh-7, Huh-7 cells, cell viability, read-out: EC50 Huh-7
# [5] = Huh-7 cells, cell viability, read-out: EC50 Huh-7
EC50 (Huh-7 cells [1]; [3]),EC50 (Huh-7 cells [1]; [4]),"EC50 (Huh-7 cells [1]; Huh-7 cells, antiproliferative activity, read-out: EC50 in Huh-7 cells)",EC50 (Huh-7 cells [1]; [5]),SMILES,"intracellular ROS, H2DCF-DA fluorescence intensity (Huh-7 cells [2])","screening of electrophilic small molecules, viability of Huh-7 cells (Huh-7 cells [1]; 10 μM with or without Fer-1 (10 μM))"
44 nM,43.6 nM,60 nM,,"C#CCN(C(=O)CCl)c1ccccc1C(=O)c1ccccc1 [IITK3003, N-(2-benzoylphenyl)-2-chloro-N-(prop-2-yn-1-yl)acetamide]",,
30 nM,32 nM,,32 nM,"CN(C(=O)CBr)c1ccccc1C(=O)c1ccccc1 [IITK3002, N-(2-benzoylphenyl)-2-bromo-N-methylacetamide]",intracellular ROS generation,
,233 nM,,233 nM,"CN(C(=O)CCl)c1ccccc1C(=O)c1ccccc1 [IITK3001, N-(2-benzoylphenyl)-2-chloro-N-methylacetamide]",intracellular ROS generation,potent inhibitors of Huh-7 cells
